Patent US5834506A, “Dihydropyrones with improved antiviral activity” (Warner-Lambert Company, priority 1997, dated 1998)
Where two headings read alike, the source gives them in different places.

Columns and labels:
HIV-1 protease = target: T1, HIV-1 protease (Human immunodeficiency virus type 1 group M subtype B, UniProt P04585); test: biochemical; conditions: read-out: Inhib of HIV-Protease IC50
T1 construct: Recombinant HIV-1 protease (>96% purity); purchased Bachem Bioscience Inc. (King of Prussia, PA)
Description: The testing of specific 5,6-dihydropyrones as inhibitors of the HIV aspartyl protease, based on the study of the hydrolysis of an undecapeptide enzyme substrate, and the testing of the 5,6-dihydropyrones as inhibitors of viral growth and infectivity, based on the study of infection of H9 cell lines by the HIV-1iiib strain, are also disclosed. […] The methods employed follow the procedures of Tummino, et al. (Archives of Biochemistry and Biophysics 1995, 316, 523).
(§1) The compounds of the present invention were evaluated for their in vitro inhibition of HIV-1 protease and for their antiviral efficacy in HIV infected lymphocytes.
Recombinant HIV-1 protease (>96% purity) and HIV protease substrate III (the undecapeptide H-His-Lys-Ala-Arg-Val-Leu-Nph-Glu-Ala-Nle-Ser-NH2,>97% purity) were purchased from Bachem Bioscience Inc. (King of Prussia, PA).
The methods employed follow the procedures of Tummino, et al. (Archives of Biochemistry and Biophysics 1995, 316, 523). […] (total volume, 100 μl). […] The final inhibitor concentrations used were 0 (0.1, 0.2, in some experiments), 0.5, 1, 2, 5, 10, 20, 50, and 100 μM. The solution was mixed, incubated for 5 minutes and the reaction quenched by addition of trifluoracetic acid, 2% final. The (leu-p-nitro-phe) bond of the substrate is cleaved by the enzyme and substrate and products separated by reverse-phase HPLC. Absorbance was measured at 220 nm, peak areas determined, and percentage conversion to product used to calculate percentage control (=[% conversion (+inhibitor)/% conversion (-inhibitor)]×100).

[1] = system: HIV in lymphocyte derived CEM cells; test: Cellular Infection Assay, antiviral efficacy in HIV infected CEM cells (XTT cytopathic procedure); assay type: cell-based; conditions: Human immunodeficiency virus 1, CCRF-CEM; for EC95: protecting the cells 95% relative to untreated control; for EC50: read-out: Antiviral Efficacy EC50
Protocol: as §1
(§2) Compounds were tested in lymphocyte derived CEM cells using the XTT cytopathic procedures and were performed at Southern Research Institute (Buckheit, et. al. Antiviral Res. 1993, 21, 247; see also Weislow, et al. J Nat. Cancer Inst., 1989, 81, 577). Compound concentrations were 0.32, 1, 3.2, 10, 32 and 100 uM. The EC50 represents the concentration of agent which reduces HIV cytopathic effects 50% relative to untreated control. EC95 represents the concentration of agent protecting the cells 95% relative to untreated control. Cellular toxicity of the agents are estimated from the TC50 which represents the concentration of the agent which inhibits 50% of the viability of uninfected cells.

[2] = Cellular toxicity in uninfected CEM cells (TC50); assay type: cell-based; conditions: human, inhibits 50% of the viability of uninfected cells
Protocol: as §2

[3] = 6.0 nM HIV-1 protease, 40 μM substrate III, 37° C., 5 minutes
[4] = CEM cells, reduces HIV cytopathic effects 50% relative to untreated control

| SMILES | IC50 (HIV-1 protease; [3]) [µM] | EC50 [1, 4] [µM] | IC50 (HIV-1 protease) [µM] | EC95 ([1]; CEM cells) [µM] | CC50 [2] [µM] | EC50 [1] [µM] |
| --- | --- | --- | --- | --- | --- | --- |
| Cc1cc(SC2=C(O)CC(CCc3cccc(O)c3)(CCc3cccc(O)c3)OC2=O)c(C(C)(C)C)cc1CO [Example 21, 3-(2-tert-Butyl-4-hydroxymethyl-5-methyl-phenylsulfanyl)-4-hydroxy-6,6-bis-[2-(3-hydroxy-phenyl)ethyl]-5,6-dihydro-pyran-2-one] | 0.0021 | 4.8 | – | 9.3 | 66 | – |
| Cc1cc(SC2=C(O)CC(CCc3cccc(O)c3)(c3ccccc3)OC2=O)c(C(C)(C)C)cc1CO (stereo not shown) [Example 37, 3-(2-tert-Butyl-4-hydroxymethyl-5-methyl-phenylsulfanyl)-4-hydroxy-6-[2-(3-hydroxy-phenyl)-ethyl]-6-phenyl-5,6-dihydro-pyran-2-one] | – | 6.1 | 0.0025 | – | > 100 | – |
| Cc1cc(SC2=C(O)CC(CCc3ccccc3)(c3ccc(OCCO)cc3)OC2=O)c(C(C)(C)C)cc1OS(=O)(=O)N1CCN(C)CC1 (stereo not shown) [Example 46] | 0.012 | 5.4 | – | 9.8 | 58 | – |
| Cc1cc(SC2=C(O)CC(CCc3ccc(O)cc3)(c3ccccc3)OC2=O)c(C(C)(C)C)cc1CO (stereo not shown) [Example 36, 3-(2-tert-Butyl-4-hydroxymethyl-5-methyl-phenylsulfanyl)-4-hydroxy-6-[2-(4-hydroxy-phenyl)-ethyl]-6-phenyl-5,6-dihydro-pyran-2-one] | 0.0016 | 4.7 | – | 20 | > 100 | – |
| Cc1cc(SC2=C(O)CC(CCc3ccc(O)cc3)(C(C)C)OC2=O)c(C(C)(C)C)cc1NC(=O)c1ccccc1 (stereo not shown) [Example 58] | 0.021 | 2.8 | – | 24 | 66 | – |
| Cc1cc(SC2=C(O)CC(C)(CCc3ccc(O)cc3)OC2=O)c(C(C)(C)C)cc1OS(N)(=O)=O (stereo not shown) [Example 43] | 0.0018 | 5.2 | – | 9.4 | 69 | – |
| Cc1ccc(C(C)(C)C)c(SC2=C(O)CC(CCc3ccccc3)(CCC(C)C)OC2=O)c1 (stereo not shown) [Ref C, 3-(2-tert-Butyl-5-methyl-phenylsulfanyl)-4-hydroxy-6-(3-methyl-butyl)-6-phenethyl-5,6-dihydro-pyran-2-one, reference compound] | 0.07 | > 28 | – | – | 28 | – |
| CCNS(=O)(=O)Oc1cc(C(C)(C)C)c(SC2=C(O)CC(CCc3ccc(O)cc3)(C3CCN(C(C)=O)CC3)OC2=O)cc1C (stereo not shown) [Example 89] | 0.012 | 32 | – | 89 | > 100 | – |
| Cc1cc(SC2=C(O)CC(CCc3ccc(O)cc3)(CCc3ccc(O)cc3)OC2=O)c(C(C)(C)C)cc1N [Example 20, 3-(4-Amino-2-tert-butyl-5-methyl-phenylsulfanyl)-4-hydroxy-6,6-bis[2-(4-hydroxy-phenyl)ethyl]-5,6-dihydro-pyran-2-one] | 0.0029 | 5 | – | 9.6 | 65 | – |
| Cc1cc(SC2=C(O)CC(CCc3ccccc3)(c3ccc(OCCN4CCNCC4)cc3)OC2=O)c(C(C)(C)C)cc1OS(=O)(=O)N(C)C (stereo not shown) [Example 26, Dimethyl-sulfamic acid 5-tert-butyl-4-{4-hydroxy-2-oxo-6-phenethyl-6-[4-(2-piperazin-1-yl-ethoxy)-phenyl]-5,6-dihydro-2H-pyran-3-ylsulfanyl}-2-methyl-phenyl ester] | 0.0051 | – | – | 9.3 | > 100 | 5.1 |
| Cc1cc(SC2=C(O)CC(CCc3ccc(O)cc3)(C(C)C)OC2=O)c(C(C)(C)C)cc1NC(=S)N1CCNCC1 (stereo not shown) [Example 83] | 0.041 | 43 | – | 92 | > 100 | – |
| CCNS(=O)(=O)Oc1cc(C(C)(C)C)c(SC2=C(O)CC(CCc3ccc(O)cc3)(CCc3ccc(O)cc3)OC2=O)cc1C [Example 28] | 0.0013 | 5.5 | – | 9.4 | 67 | – |
| Cc1cc(SC2=C(O)CC(C)(CCc3ccc(O)cc3)OC2=O)c(C(C)(C)C)cc1NS(=O)(=O)c1ccc(F)cc1 (stereo not shown) [Example 71] | 0.0037 | 2.4 | – | 8.6 | 93 | – |

Now from value to compound, other results behind:

| IC50 (HIV-1 protease; [3]) [µM] | EC50 [1, 4] [µM] | IC50 (HIV-1 protease) [µM] | SMILES | EC95 ([1]; CEM cells) [µM] | CC50 [2] [µM] | EC50 [1] [µM] |
| --- | --- | --- | --- | --- | --- | --- |
| 0.0028 | 1.5 | – | Cc1cc(SC2=C(O)CC(CCc3ccc(O)cc3)(C(C)C)OC2=O)c(C(C)(C)C)cc1OCCO (racemic) [Example 5, 3-[2-tert-Butyl-4-(2-hydroxy-ethoxy)-5-methyl-phenylsulfanyl]-4-hydroxy-6-[2-(4-hydroxy-phenyl)-ethyl]-6-isopropyl-5,6-dihydro-pyran-2-one, (+/-)] | 3.2 | 66 | – |
| 0.0071 | 2.3 | – | Cc1cc(SC2=C(O)CC(C)(CCc3ccc(O)cc3)OC2=O)c(C(C)(C)C)cc1OS(=O)(=O)N1CCN(C)CC1 (stereo not shown) [Example 31, 4-Methyl-piperazine-1-sulfonic acid 5-tert-butyl-4-{4-hydroxy-6-[2-(4-hydroxy-phenyl)-ethyl]-6-methyl-2-oxo-5,6-dihydro-2H-pyran-3-ylsulfanyl}-2-methyl-phenyl ester] | 8.4 | > 100 | – |
| 0.0031 | 1 | – | Cc1cc(SC2=C(O)CC(CCc3ccc4c(c3)OCO4)(C(C)C)OC2=O)c(C(C)(C)C)cc1CO (stereo not shown) [Example 61] | 15 | 78 | – |
| 0.0048 | 1.4 | – | CCNS(=O)(=O)Oc1cc(C(C)(C)C)c(SC2=C(O)CC(CCc3ccc(O)cc3)(C3CCCCC3)OC2=O)cc1C (stereo not shown) [Example 8, Ethyl-sulfamic acid 5-tert-butyl-4-{6-cyclohexyl-4-hydroxy-6-[2-(4-hydroxy-phenyl)-ethyl]-2-oxo-5,6-dihydro-2H-pyran-3-ylsulfanyl}-2-methyl-phenyl ester] | 5.3 | 67 | – |
| 0.0044 | 0.5 | – | Cc1cc(SC2=C(O)CC(CCc3ccc(N)cc3C)(C3CCCCC3)OC2=O)c(C(C)(C)C)cc1CO (stereo not shown) [Example 72] | 8.5 | 66 | – |
| – | 0.5 | 0.0025 | Cc1cc(SC2=C(O)CC(CCc3ccc(O)cc3)(C3CCCCC3)OC2=O)c(C(C)(C)C)cc1CO (stereo not shown) [Example 9, 3-(2-tert-Butyl-4-hydroxymethyl-5-methyl-phenylsulfanyl)-6-cyclohexyl-4-hydroxy-6-[2-(4-hydroxy-phenyl)-ethyl]-5,6-dihydro-pyran-2-one] | 1.2 | 75 | – |
| – | 0.6 | 0.0036 | Cc1cc(SC2=C(O)CC(CCc3ccc(O)cc3)(C(C)C)OC2=O)c(C(C)(C)C)cc1CO (racemic) [Example 2, 3-[2-tert-Butyl-4-hydroxymethyl-5-methyl-phenylsulfanyl]-4-hydroxy-6-[2-(4-hydroxy-phenyl)-ethyl]-6-isopropyl-5,6-dihydro-pyran-2-one, (+/-)] | 1 | > 100 | – |
| 0.0016 | 1.2 | – | Cc1cc(SC2=C(O)CC(CCc3ccc(N)cc3)(CCc3ccc(N)cc3)OC2=O)c(C(C)(C)C)cc1CO [Example 16, 6,6-Bis-[2-(4-aminophenyl)ethyl]-3-(2-tert-butyl-4-hydroxymethyl-5-methyl-phenylsulfanyl)-4-hydroxy-5,6-dihydro-pyran-2-one] | 15 | 72 | – |
| – | 0.5 | 0.0031 | Cc1cc(SC2=C(O)CC(CCc3ccc(O)cc3)(C(C)C)OC2=O)c(C(C)(C)C)cc1OS(=O)(=O)N1CCN(C)CC1 (stereo not shown) [Example 67] | 2 | > 100 | – |
| 0.0022 | 0.8 | – | Cc1cc(SC2=C(O)CC(CCc3ccc(O)cc3)(C3CCC3)OC2=O)c(C(C)(C)C)cc1CO (stereo not shown) [Example 98] | 1.9 | > 100 | – |
| 0.0023 | 1.5 | – | CCNS(=O)(=O)Oc1cc(C(C)(C)C)c(SC2=C(O)CC(C)(CCc3ccc(O)cc3)OC2=O)cc1C (racemic) [Example 3] | 12 | 66 | – |
